In patent publication US20240360178A1, “MACROCYCLIC IMMUNOMODULATORS” (Bristol-Myers Squibb Company, priority 2021, published 2024):
Positions of bridges follow the written chain, without caps; N, C: chain ends. Non-standard residues stand in square brackets, D forms with d. Residues, ends and D or L forms follow the SMILES beside them. Bip = N[C@@H](Cc1ccc(-c2ccccc2)cc1)C(=O)O; dOrn = NCCC[C@@H](N)C(=O)O; dDab = NCC[C@@H](N)C(=O)O; NMeA = CN[C@@H](C)C(=O)O; Orn = NCCC[C@H](N)C(=O)O; Sar = CNCC(=O)O

Target: T1, human PD-1 (Jurkat-PD-1 cells) / PE-labeled human PD-L1-Ig (Homo sapiens, UniProt Q15116)
T1 construct: expressed in transfected cells; host or cells: Jurkat cell line over-expressing human PD-1
T1 sequence (Q15116 25-288): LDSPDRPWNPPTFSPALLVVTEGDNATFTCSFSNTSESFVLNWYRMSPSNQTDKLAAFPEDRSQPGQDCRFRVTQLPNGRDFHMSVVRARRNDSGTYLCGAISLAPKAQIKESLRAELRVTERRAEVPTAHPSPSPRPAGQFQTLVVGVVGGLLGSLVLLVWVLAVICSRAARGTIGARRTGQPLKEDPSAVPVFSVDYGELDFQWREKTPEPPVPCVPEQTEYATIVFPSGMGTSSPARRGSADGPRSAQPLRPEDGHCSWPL
Assay: Jurkat-PD-1 Cell Binding High-Content Screening Assay (CBA); Jurkat hPD1-PDL1 assay
Details: Jurkat cell line over-expressing human PD-1; PE-labeled PD-L1-Ig 20 nM final; compound incubated 2 hours at 37° C.; read-out: Jurkat HPD1-PDL1 IC50
Outline: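 Jurkat-hPD-1 cells; cpd 2 h, 37° C; then PE-PD-L1-Ig 20 nM final in DMEM/10% FCS; high-content imaging read-out.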

Row | Structure (SMILES) | IC50 [nM]
1 | CC(C)C[C@@H]1NC(=O)[C@H](Cc2c[nH]c3ccccc23)NC(=O)[C@H](CC(=O)O)NC(=O)[C@H](Cc2ccc(O)cc2)NC(=O)[C@H](Cc2ccccc2)NC(=O)CSC[C@@H](C(=O)N[C@@H](C)C(N)=O)NC(=O)[C@H](CO)NC(=O)[C@H](C(C)C)NC(=O)[C@H](CC(C)C)NC(=O)[C@H](CC(N)=O)NC(=O)[C@H]2CCCN2C(=O)[C@@H](CCN)NC(=O)[C@H](C(C)C)NC(=O)[C@H](Cc2ccc(-c3ccccc3)cc2)NC1=O [Example 1195] ({CH2CO}-FYDWL[Bip]V[dDab][dP]NLVSCA-NH2; thioether N-14) | 370
2 | CC(C)C[C@@H]1NC(=O)[C@H](Cc2c[nH]c3ccccc23)NC(=O)[C@H](CC(=O)O)NC(=O)[C@H](Cc2ccc(O)cc2)NC(=O)[C@H](Cc2ccccc2)NC(=O)CSC[C@@H](C(=O)N[C@@H](C)C(N)=O)NC(=O)[C@H](CO)NC(=O)[C@H](C(C)C)NC(=O)[C@H](CC(C)C)NC(=O)[C@H](CC(N)=O)NC(=O)CN(C)C(=O)[C@@H](CCN)NC(=O)[C@H](C(C)C)NC(=O)[C@H](Cc2ccc(-c3ccccc3)cc2)NC1=O [Example 1196] ({CH2CO}-FYDWL[Bip]V[dDab][Sar]NLVSCA-NH2; thioether N-14) | 950
3 | CC(C)C[C@@H]1NC(=O)[C@H](Cc2c[nH]c3ccccc23)NC(=O)[C@H](CC(=O)O)NC(=O)[C@H](Cc2ccc(O)cc2)NC(=O)[C@H](Cc2ccccc2)NC(=O)CSC[C@@H](C(=O)N[C@@H](C)C(N)=O)NC(=O)[C@H](CO)NC(=O)[C@H](C(C)C)NC(=O)[C@H](CC(C)C)NC(=O)[C@H](CC(N)=O)NC(=O)[C@H]2CCCN2C(=O)[C@@H](CCCCN)NC(=O)[C@H](C(C)C)NC(=O)[C@H](Cc2ccc(-c3ccccc3)cc2)NC1=O [Example 1197] ({CH2CO}-FYDWL[Bip]V[dK][dP]NLVSCA-NH2; thioether N-14) | 420
4 | CC(C)C[C@@H]1NC(=O)[C@H](Cc2c[nH]c3ccccc23)NC(=O)[C@H](CC(=O)O)NC(=O)[C@H](Cc2ccc(O)cc2)NC(=O)[C@H](Cc2ccccc2)NC(=O)CSC[C@@H](C(=O)N[C@@H](C)C(N)=O)NC(=O)[C@H](CO)NC(=O)[C@H](C(C)C)NC(=O)[C@H](CC(C)C)NC(=O)[C@H](CC(N)=O)NC(=O)CN(C)C(=O)[C@@H](CCCN)NC(=O)[C@H](C(C)C)NC(=O)[C@H](Cc2ccc(-c3ccccc3)cc2)NC1=O [Example 1198] ({CH2CO}-FYDWL[Bip]V[dOrn][Sar]NLVSCA-NH2; thioether N-14) | 760

The next compounds have a lower IC50 than those just listed; values first:

Row | IC50 [nM] | Structure (SMILES)
5 | 30 | CC(C)C[C@@H]1NC(=O)[C@H](Cc2c[nH]c3ccccc23)NC(=O)[C@H](CC(=O)O)NC(=O)[C@H](Cc2ccc(O)cc2)NC(=O)[C@H](Cc2ccccc2)NC(=O)CSC[C@@H](C(=O)N[C@@H](C)C(N)=O)NC(=O)[C@H](CO)NC(=O)[C@H](C(C)C)NC(=O)[C@H](CC(C)C)NC(=O)[C@H](CC(N)=O)NC(=O)[C@H]2CCCN2C(=O)[C@H](CCCN)NC(=O)[C@H](C(C)C)NC(=O)[C@H](Cc2ccc(-c3ccccc3)cc2)NC1=O [Example 1200] ({CH2CO}-FYDWL[Bip]V[Orn][dP]NLVSCA-NH2; thioether N-14)
6 | 80 | CC(C)C[C@@H]1NC(=O)[C@H](CC(N)=O)NC(=O)CN(C)C(=O)[C@H](C)N(C)C(=O)[C@H](C(C)C)NC(=O)[C@H](Cc2ccc(-c3ccccc3)cc2)NC(=O)[C@H](C(C)C)NC(=O)[C@H](Cc2c[nH]c3ccccc23)NC(=O)[C@H](CC(=O)O)NC(=O)[C@H](Cc2ccc(O)cc2)NC(=O)[C@H](Cc2ccccc2)NC(=O)CSC[C@@H](C(=O)NCC(N)=O)NC(=O)[C@H](CO)NC(=O)[C@H](C(C)C)NC1=O [Example 1202] ({CH2CO}-FYDWV[Bip]V[NMeA][Sar]NLVSCG-NH2; thioether N-14)
